Where two headings read alike, the source gives them in different places.
Columns and labels:
[1] = system: NO production in LPS-stimulated RAW264.7 cells; assay: Inhibition of nitric oxide (NO) production in LPS-stimulated RAW264.7 cells (Griess reagent); format: cell-based; conditions: 1 μg/mL LPS, read-out: IC50 value, NO production inhibitory effect
Procedure: (§1) RAW264.7 cells were cultured in Dulbecco’s modified essential medium (DMEM, Gibco). The cells were incubated at 37 °C in DMEM with 10% fetal bovine serum (FBS, Gibco), penicillin (100 U/mL, Gibco), and streptomycin sulfate (100 μg/mL, Gibco) under a humidified atmosphere containing 5% CO2. Briefly, 2 × 10^4 cells/well treated for 24 h with vehicle or compounds were examined for cell viability based on the MTT (3-(4,5-dimethylthiazol-2-yl)-2,5-diphenyltetrazolium bromide assay) method.[60] Survival of macrophage cells after treatment with compounds was measured at a wavelength of 570 nm.
(§2) RAW264.7 cells (2 × 10^4 cells/well) were stimulated with or without 1 μg/mL lipopolysaccharide (LPS, Sigma) for 24 h in the presence or absence of the test compounds at different concentrations. Afterward, 100 μL of the cell culture supernatant was mixed with 100 μL of Griess reagent.[61] The remaining cells from the Griess assay were then utilized to determine their viability by using the MTT colorimetric assay described above.

[2] = RAW264.7 cell viability (MTT) alongside the NO assay; conditions: RAW264.7 cells
Procedure: as §1, §2

[3] = HepG2 cytotoxicity test (MTT, 48 h); conditions: human, HepG2 cells
Procedure: (§3) Human hepatocellular carcinoma HepG2 cells were cultured in DMEM (Gibco) supplemented with 10% FBS (Gibco) and 1% antibiotic–antimycotic (Gibco, 15240062). Once cells reached approximately 80% confluence, they were washed with PBS and detached using trypsin-EDTA (Gibco, 25200072) at 37 °C for 5 min. Cells were then seeded into 96-well plates at a density of 3 × 10^4 cells per well (100 μL/well) and incubated for 24 h at 37 °C in a humidified atmosphere with 5% CO2.
(§4) After the initial incubation, the medium was replaced with 100 μL of fresh medium containing the test compounds, and the cells were incubated for an additional 48 h. Cell viability was determined using the MTT assay, following standard protocols with untreated cells serving as the control. The percentage of cell viability was calculated using the following formula: % viability = [(number of viable cells)/(total cells)] × 100. The concentration of the test compounds was set at 80 μM for the screening.

in vitro [4] = assay: in vitro
Procedure: as §1, §2

in vitro [5] = conditions: human
Procedure: as §3, §4

[6] = Hepatoprotective effect in acetaminophen-induced hepatotoxicity in HepG2 cell model (MTT); format: cell-based; conditions: human, HepG2 cells, HepG2, 6 mM APAP, control without APAP 100%, read-out: Cell viability, treated only with acetaminophen (APAP)
Procedure: Compounds that maintained cell viability above 80% were subsequently tested for their hepatoprotective properties using an acetaminophen-induced hepatotoxicity model in HepG2 cells. […] Afterward, the cells were treated with the test compounds. Eight hours later, hepatotoxicity was induced by adding acetaminophen (6 mM, Sigma-Aldrich A7085) to the wells. Cell viability was measured using the MTT assay 36 h after acetaminophen exposure, and the results were used to assess the hepatoprotective effects of the compounds.

IC50 ([1]; Mus musculus, RAW264.7, 24 h) | SMILES | viability at 48 h, 80 µM [2] | viability at 48 h, 80 µM [3] | further results
9.19 µM | COC(=O)C1=CO[C@@H](O[C@@H]2O[C@H](CO[C@H]3O[C@H](CO)[C@H](O)[C@H](O)[C@H]3O)[C@@H](O)[C@H](O)[C@H]2O)[C@@H]2[C@@H](C)[C@@H](O)C[C@H]12 [Compound 1, loganin 6′-O-α-D-galactopyranoside] | 97.7 ± 2.3% | – | IC50 ([1]; 24 h): 9.18 ± 0.3 µM
17.7 ± 0.4 µM | C=C[C@H]1[C@H](O[C@@H]2O[C@H](CO)[C@@H](O)[C@H](O)[C@H]2O)OC=C(C(=O)O[C@H]2C[C@@H]3C(C(=O)OC)=CO[C@@H](O[C@@H]4O[C@H](CO)[C@@H](O)[C@H](O)[C@H]4O)[C@@H]3[C@H]2C)[C@H]1C[C@H]1OC[C@H]2O[C@H](OC[C@H]3O[C@](O)(CO)[C@@H](O)[C@@H]3O)[C@H](O)[C@@H](O)[C@H]2O1 [Compound 5, gomphandranoside E] | 98.9 ± 3.1% | > 80% | –
14.7 ± 0.9 µM | C=C[C@H]1[C@H](O[C@@H]2O[C@H](CO)[C@@H](O)[C@H](O)[C@H]2O)OC=C(C(=O)O[C@H]2C[C@@H]3CCOC(=O)[C@@H]3[C@H]2C)[C@H]1C[C@@H](O)O[C@@H](O)C[C@@H]1C(C(=O)O[C@H]2C[C@@H]3CCOC(=O)[C@@H]3[C@H]2C)=CO[C@@H](O[C@@H]2O[C@H](CO)[C@@H](O)[C@H](O)[C@H]2O)[C@@H]1C=C [Compound 7, gomphandranoside G] | 95.3 ± 2.4% | > 80% | –
14.4 ± 1.2 µM | C=C[C@@H]1[C@H](O[C@@H]2O[C@H](CO)[C@@H](O)[C@H](O)[C@H]2O)OC=C(C(=O)O[C@H]2C[C@@H]3C(C(=O)OC)=CO[C@H](O[C@@H]4O[C@H](CO)[C@@H](O)[C@H](O)[C@H]4O)[C@@H]3[C@H]2C)[C@@H]1/C(C=O)=C\C[C@H]1C(C(=O)O[C@H]2C[C@@H]3CCOC(=O)[C@@H]3[C@H]2C)=CO[C@@H](O[C@@H]2O[C@H](CO)[C@@H](O)[C@H](O)[C@H]2O)[C@H]1C=C [Compound 8, gomphandranoside H] | 100 ± 2.5% | – | –
26.2 ± 1.3 µM | C=CC1C(CC(OC)OC)C(C(=O)O[C@H]2CC3C(C(=O)OC)=CO[C@@H](O[C@@H]4O[C@H](CO)[C@@H](O)[C@H](O)[C@H]4O)C3[C@H]2C)=CO[C@H]1O[C@@H]1O[C@H](CO)[C@@H](O)[C@H](O)[C@H]1O (stereo partly shown) [Compound 11, cantleyoside-dimethyl-acetal] | 94.8 ± 3.7% | > 80% | –
23.1 ± 1.7 µM | C=CC1C(CC=O)C(C(=O)O[C@H]2CC3C(C(=O)OC)=CO[C@@H](O[C@@H]4O[C@H](CO)[C@@H](O)[C@H](O)[C@H]4O)C3[C@H]2C)=CO[C@H]1O[C@@H]1O[C@H](CO)[C@@H](O)[C@H](O)[C@H]1O (stereo partly shown) [Compound 12, cantleyoside] | – | – | –
17 ± 1.1 µM | C=C[C@H]1[C@H](O[C@@H]2O[C@H](CO)[C@@H](O)[C@H](O)[C@H]2O)OC=C(C(=O)O[C@H]2C[C@@H]3C(C(=O)OC)=CO[C@@H](O[C@@H]4O[C@H](CO)[C@@H](O)[C@H](O)[C@H]4O)[C@@H]3[C@H]2C)[C@H]1C[C@@H]1N[C@H](C(=O)O)Cc2c1[nH]c1ccccc21 [Compound 16, dipsaperine] | 95.2 ± 2.1% | > 80% | –

More lines, now with the values behind:

SMILES | IC50 ([1]; Mus musculus, RAW264.7, 24 h) | viability at 48 h, 80 µM [2] | viability at 48 h, 80 µM [3] | further results
C=C[C@H]1[C@H](O[C@@H]2O[C@H](CO)C(O)[C@H](O)[C@H]2O)OC=C(C(=O)O[C@H]2C[C@@H]3CCOC(=O)[C@@H]3[C@H]2C)[C@H]1CC(OC)OC (stereo partly shown) [Compound 3, gomphandranoside C] | 23.8 ± 2.6 µM | 103 ± 3.5% | > 80% | –
C=C[C@H]1[C@H](O[C@@H]2O[C@H](CO)[C@@H](O)[C@H](O)[C@H]2O)OC=C(C(=O)O[C@H]2C[C@@H]3C(C(=O)OC)=CO[C@@H](O[C@@H]4O[C@H](CO)[C@@H](O)[C@H](O)[C@H]4O)[C@@H]3[C@H]2C)[C@H]1C[C@H]1OC[C@H]2O[C@H](OC[C@H]3O[C@@](CO)(O[C@H]4O[C@H](CO)[C@@H](O)[C@H](O)[C@H]4O)[C@@H](O)[C@@H]3O)[C@H](O)[C@@H](O)[C@H]2O1 [Compound 4, gomphandranoside D] | 19.5 ± 0.3 µM | 95.1 ± 2.8% | > 80% | –
C=C[C@H]1[C@H](O[C@@H]2O[C@H](CO)[C@@H](O)[C@H](O)[C@H]2O)OC=C(C(=O)O[C@H]2C[C@@H]3C(C(=O)OC)=CO[C@@H](O[C@@H]4O[C@H](CO)[C@@H](O)[C@H](O)[C@H]4O)[C@@H]3[C@H]2C)[C@H]1C[C@@H]1O[C@@H]2[C@@H](O)[C@@H](OC[C@H]3O[C@@](CO)(O[C@H]4O[C@H](CO)[C@@H](O)[C@H](O)[C@H]4O)[C@@H](O)[C@@H]3O)O[C@H](CO)[C@@H]2O1 [Compound 6, gomphandranoside F] | 20.2 ± 1.1 µM | 94.6 ± 4.5% | > 80% | –
C=C[C@H]1[C@H](O[C@@H]2O[C@H](CO)[C@@H](O)[C@H](O)[C@H]2O)OC=C(C(=O)O[C@H]2C[C@@H]3C(C(=O)OC)=CO[C@@H](O[C@@H]4O[C@H](CO)[C@@H](O)[C@H](O)[C@H]4O)[C@@H]3[C@H]2C)[C@H]1C1=CO[C@H]2C[C@@H]1C[C@@H]1C(C(=O)O[C@H]3C[C@@H]4C(C(=O)OC)=CO[C@@H](O[C@@H]5O[C@H](CO)[C@@H](O)[C@H](O)[C@H]5O)[C@@H]4[C@H]3C)=CO[C@@H](O[C@@H]3O[C@H](CO)[C@@H](O)[C@H](O)[C@H]3O)[C@H]21 [Compound 9, gomphandranoside I] | 12.9 ± 0.5 µM | 98.3 ± 2.6% | > 80% | –
C=C[C@H]1[C@H](O[C@@H]2O[C@H](CO)[C@@H](O)[C@H](O)[C@H]2O)OC=C(C(=O)O[C@H]2C[C@@H]3C(C(=O)OC)=CO[C@@H](O[C@H]4O[C@H](CO)[C@@H](O)[C@H](O)[C@H]4O)[C@@H]3[C@H]2C)[C@H]1C1=COC[C@@H]2[C@H]3[C@@H](O[C@@H]4O[C@H](CO)[C@@H](O)[C@H](O)[C@H]4O)OC=C(C(=O)O[C@H]4C[C@@H]5C(C(=O)OC)=CO[C@@H](OC6O[C@H](CO)[C@@H](O)[C@H](O)[C@H]6O)[C@@H]5[C@H]4C)[C@H]3C[C@H]12 (stereo partly shown) [Compound 10, gomphandranoside K] | 12.2 ± 1.1 µM | 96.7 ± 1.5% | – | –
C=C[C@H]1[C@H](O[C@@H]2O[C@H](CO)[C@@H](O)[C@H](O)[C@H]2O)OC=C(C(=O)O[C@H]2C[C@@H]3C(C(=O)OC)=CO[C@@H](O[C@@H]4O[C@H](CO)[C@@H](O)[C@H](O)[C@H]4O)[C@@H]3[C@H]2C)[C@H]1CC=O [Compound 12, cantleyoside] | – | 93.9 ± 2.5% | > 80% | –
C=C[C@H]1[C@H](O[C@@H]2O[C@H](CO)[C@@H](O)[C@H](O)[C@H]2O)OC=C2C(=O)OCC[C@H]21 [Compound 13, sweroside] | – | – | – | IC50 ([1]; Mus musculus, 24 h): 36 ± 1.6 µM; viability at 48 h, 80 µM (in vitro [4]): 94.7 ± 4.2%; viability at 48 h, 80 µM (in vitro [5]): > 80%
C=C[C@H]1[C@H](O[C@@H]2O[C@H](CO)[C@@H](O)[C@H](O)[C@H]2O)OC=C(C(=O)O[C@H]2C[C@@H]3C(C(=O)OC)=CO[C@@H](O[C@@H]4O[C@H](CO)[C@@H](O)[C@H](O)[C@H]4O)[C@@H]3[C@@H]2C)[C@H]1/C=C(\C=O)[C@@H]1C(C(=O)O[C@@H]2C[C@@H]3C(C(=O)OC)=CO[C@@H](O[C@@H]4O[C@H](CO)[C@@H](O)[C@H](O)[C@H]4O)[C@@H]3[C@@H]2C)=CO[C@@H](O[C@@H]2O[C@H](CO)[C@@H](O)[C@H](O)[C@H]2O)[C@@H]1C=C [Compound 15, dipsanoside A] | 6.13 ± 0.5 µM | 99.5 ± 3.6% | > 80% | –
C=C[C@H]1[C@H](O[C@@H]2O[C@H](CO)[C@@H](O)[C@H](O)[C@H]2O)OC=C(C(=O)O[C@H]2C[C@@H]3C(C(=O)OC)=CO[C@@H](O[C@@H]4O[C@H](CO)[C@@H](O)[C@H](O)[C@H]4O)[C@@H]3[C@@H]2C)[C@H]1/C=C(\C=O)[C@@H]1C(C(=O)O[C@H]2C[C@@H]3C(C(=O)OC)=CO[C@@H](O[C@@H]4O[C@H](CO)[C@@H](O)[C@H](O)[C@H]4O)[C@@H]3[C@H]2C)=CO[C@@H](O[C@@H]2O[C@H](CO)[C@@H](O)[C@H](O)[C@H]2O)[C@@H]1C=C [Compound 17, dipsanoside B] | 14.4 ± 1.5 µM | 94.2 ± 4.6% | > 80% | –
COC(=O)C1=CO[C@@H](O[C@@H]2O[C@H](CO)[C@@H](O)[C@H](O)[C@H]2O)[C@@H]2[C@@H](C)[C@@H](O)C[C@H]12 [Compound 18, loganin] | 51.1 ± 1.8 µM | 98.1 ± 4% | > 80% | –
CC(=O)Nc1ccc(O)cc1 [acetaminophen (APAP), acetaminophen] | – | – | – | viability at 36 h, 6 mM [6]: 68.1%
C[C@@H]1C[C@H]2[C@@H]3CCC4=CC(=O)C=C[C@]4(C)[C@@]3(F)[C@@H](O)C[C@]2(C)[C@@]1(O)C(=O)CO [dexamethasone, reference compound] | 9.08 ± 0.5 µM | – | – | viability at 48 h, 20 µM [2]: 96.3 ± 2.6%

Source: publication PMC11877508, “Anti-inflammatory and Hepatoprotective Iridoid Glycosides from the Roots of Gomphandra mollis” (Journal of Natural Products, 2025)
